From US5486469A, “Thermostable Fervidobacterium pullulanases” (Novo Nordisk A/S, priority 1991, dated 1996)
Like-named read-outs stand apart in the source and are kept apart here.

Biological target: T1, Fervidobacterium sp. Ven 5, DSM 6204 pullulanase, purified native enzyme (Fervidobacterium pennivorans, UniProt Q9XDB5)
T1 construct: Ven 5; single SDS-PAGE band of 78 kDa; not the E. coli clone PL2125
T1 sequence (Q9XDB5 29-849): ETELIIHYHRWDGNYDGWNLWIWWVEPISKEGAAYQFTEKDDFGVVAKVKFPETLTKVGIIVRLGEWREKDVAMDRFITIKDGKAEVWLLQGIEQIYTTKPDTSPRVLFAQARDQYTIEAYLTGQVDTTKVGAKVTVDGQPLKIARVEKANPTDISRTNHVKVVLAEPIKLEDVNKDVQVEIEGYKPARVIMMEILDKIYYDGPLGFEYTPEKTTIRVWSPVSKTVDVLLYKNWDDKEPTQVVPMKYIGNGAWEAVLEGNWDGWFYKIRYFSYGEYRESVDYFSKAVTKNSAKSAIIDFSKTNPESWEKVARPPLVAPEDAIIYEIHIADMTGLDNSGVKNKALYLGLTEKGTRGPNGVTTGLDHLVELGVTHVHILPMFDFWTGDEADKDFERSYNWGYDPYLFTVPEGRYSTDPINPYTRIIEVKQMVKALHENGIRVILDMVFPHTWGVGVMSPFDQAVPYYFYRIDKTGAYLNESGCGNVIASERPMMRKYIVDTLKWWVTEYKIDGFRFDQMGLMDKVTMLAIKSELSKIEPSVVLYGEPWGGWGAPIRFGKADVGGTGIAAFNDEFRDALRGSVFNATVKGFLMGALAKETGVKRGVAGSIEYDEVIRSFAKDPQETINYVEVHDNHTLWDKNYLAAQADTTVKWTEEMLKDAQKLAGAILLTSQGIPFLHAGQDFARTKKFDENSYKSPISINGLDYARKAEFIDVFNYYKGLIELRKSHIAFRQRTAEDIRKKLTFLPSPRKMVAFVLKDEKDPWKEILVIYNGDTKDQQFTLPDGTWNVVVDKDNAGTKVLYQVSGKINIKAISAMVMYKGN
Test: Influence of cyclodextrins and EDTA on pullulytic activity (reducing sugars liberated from pullulan)
Assay type: biochemical
Conditions: for Influence on the pullulytic activity (in words): up to 5 mM
Experimental: Pullulanase activity was measured by determining the amount of reducing sugars liberated during incubation with pullulan at 85° C. and pH 6.0. The activity of 1 U of pullulanase was defined as that amount of enzyme which liberates 1 μmol of reducing sugar per minute using maltose as a standard. The enzymatic reactions were conducted in 50 mM sodium-phosphate buffer, pH 6.0, the concentration of the substrate was 0.5% (w/v).
The reaction mixture was prepared by adding 50 μl enzyme solution to 200 μl substrate solution. The mixture was incubated at 85° C. for 5 minutes, cooled and diluted with 2.5 ml water. After incubation 250 μl dinitrosalicylic acid reagent (i.e. dinitrosalicylic acid 1 g, 2 N NaOh 20 ml, K-Na-tartrate×4 H2 O 30 g, and distilled water 100 ml) were added. The optical density was measured at 546 nm against a mixture which was not incubated.
6) Influence of metal ions,
The concentration of inhibitors was:
Metal ions and cyclodextrins
The purified pullulanase obtained according to Ex. 2 was subjected to characterization using the method for analyzing pullulanase activity described in Ex. 1.
To investigate the influence of metal ions, cyclodextrins and various glucose polymers on the activity of the pullulanase the purified enzyme was incubated with a 0.5% pullulan solution (pH 6.0) in the presence of up to 5 mM of metal ions and cyclodextrins. Amylose, starch, glycogen, pullulan and branched oligosaccharides were added in concentrations of up to 0.05%.

[1] = pH 6, read-out: Activity (%) of pullulanase in the presence of inhibitor

Row | inhibition at 5000 µM (5 mM inhibitor, 0.5% pullulan solution, pH 6.0, 1.0 U/ml pullulanase, no inhibitor = 100, read-out: Activity (%) of pullulanase in the presence of inhibitor) | Compound | Influence on the pullulytic activity (in words) (0.5% pullulan solution, pH 6.0) | inhibition at 5000 µM [1]
1 | 4% | OCC1OC2OC3C(CO)OC(OC4C(CO)OC(OC5C(CO)OC(OC6C(CO)OC(OC7C(CO)OC(OC8C(CO)OC(OC1C(O)C2O)C(O)C8O)C(O)C7O)C(O)C6O)C(O)C5O)C(O)C4O)C(O)C3O (stereo not drawn) [β-Cyclodextrin] | inhibited completely | –
2 | – | OCC1OC2OC3C(CO)OC(OC4C(CO)OC(OC5C(CO)OC(OC6C(CO)OC(OC7C(CO)OC(OC1C(O)C2O)C(O)C7O)C(O)C6O)C(O)C5O)C(O)C4O)C(O)C3O (stereo not drawn) [α-Cyclodextrin] | decreased the activity of the enzyme slightly | 57%
3 | – | O=C(O)CN(CCN(CC(=O)O)CC(=O)O)CC(=O)O [EDTA] | did not influence the pullulytic activity | 100%
